≈ marks a conversion by molar mass, not a printed value. Where “and” joins values, the source holds several entries; their conditions need not be identical. Identical values can stand only once. Entries after “also recorded” stand apart in the source; their conditions may differ. Like-named read-outs stand apart in the source and are kept apart here.
How the values were obtained:
[1] = molecular target: T1, E. coli DNA gyrase (Escherichia coli (strain K12), UniProt P0AES4+P0AES6); experiment: Agarose gel-based DNA gyrase inhibition assay; format: biochemical
Experimental: 100 ng of DNA gyrase was used to supercoil the rx pAB1 in the presence of different concentrations of a gyrase inhibitor. […] Samples were analyzed by electrophoresis in 1% w/v agarose gels followed by ethidium bromide staining and photographed under UV light.

[2] = molecular target: T1, E. coli DNA gyrase; experiment: biochemical; format: biochemical
[3] = molecular target: Mtb DNA gyrase (Mycobacterium tuberculosis (strain ATCC 25618 / H37Rv), UniProt P9WG45+P9WG47); experiment: Mtb DNA gyrase inhibition assay (gel-based); format: biochemical; conditions: for IC50: Table 5, Mtb gyrase, read-out: IC50 (µM) Mtb
Procedure, shortened: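 Supercoiling by 100 ng Mtb gyrase of 400 ng relaxed pAB1 in buffer with 1.75 mM ATP, pH 7.5, across inhibitor concentrations. Reactions ran 15 min at 37° C, stopped with SDS/EDTA. Products resolved on 1% agarose, ethidium bromide-stained; IC50 determined from gels.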

[4] = molecular target: human DNA topoisomerase IIα (Homo sapiens (Human), UniProt P11388); experiment: Agarose gel-based inhibition assay against human DNA topoisomerase IIα; format: biochemical; conditions: for inhibition of human DNA topoisomerase IIα: gallates at 100 µM
human DNA topoisomerase IIα, sequence (P11388 whole entry): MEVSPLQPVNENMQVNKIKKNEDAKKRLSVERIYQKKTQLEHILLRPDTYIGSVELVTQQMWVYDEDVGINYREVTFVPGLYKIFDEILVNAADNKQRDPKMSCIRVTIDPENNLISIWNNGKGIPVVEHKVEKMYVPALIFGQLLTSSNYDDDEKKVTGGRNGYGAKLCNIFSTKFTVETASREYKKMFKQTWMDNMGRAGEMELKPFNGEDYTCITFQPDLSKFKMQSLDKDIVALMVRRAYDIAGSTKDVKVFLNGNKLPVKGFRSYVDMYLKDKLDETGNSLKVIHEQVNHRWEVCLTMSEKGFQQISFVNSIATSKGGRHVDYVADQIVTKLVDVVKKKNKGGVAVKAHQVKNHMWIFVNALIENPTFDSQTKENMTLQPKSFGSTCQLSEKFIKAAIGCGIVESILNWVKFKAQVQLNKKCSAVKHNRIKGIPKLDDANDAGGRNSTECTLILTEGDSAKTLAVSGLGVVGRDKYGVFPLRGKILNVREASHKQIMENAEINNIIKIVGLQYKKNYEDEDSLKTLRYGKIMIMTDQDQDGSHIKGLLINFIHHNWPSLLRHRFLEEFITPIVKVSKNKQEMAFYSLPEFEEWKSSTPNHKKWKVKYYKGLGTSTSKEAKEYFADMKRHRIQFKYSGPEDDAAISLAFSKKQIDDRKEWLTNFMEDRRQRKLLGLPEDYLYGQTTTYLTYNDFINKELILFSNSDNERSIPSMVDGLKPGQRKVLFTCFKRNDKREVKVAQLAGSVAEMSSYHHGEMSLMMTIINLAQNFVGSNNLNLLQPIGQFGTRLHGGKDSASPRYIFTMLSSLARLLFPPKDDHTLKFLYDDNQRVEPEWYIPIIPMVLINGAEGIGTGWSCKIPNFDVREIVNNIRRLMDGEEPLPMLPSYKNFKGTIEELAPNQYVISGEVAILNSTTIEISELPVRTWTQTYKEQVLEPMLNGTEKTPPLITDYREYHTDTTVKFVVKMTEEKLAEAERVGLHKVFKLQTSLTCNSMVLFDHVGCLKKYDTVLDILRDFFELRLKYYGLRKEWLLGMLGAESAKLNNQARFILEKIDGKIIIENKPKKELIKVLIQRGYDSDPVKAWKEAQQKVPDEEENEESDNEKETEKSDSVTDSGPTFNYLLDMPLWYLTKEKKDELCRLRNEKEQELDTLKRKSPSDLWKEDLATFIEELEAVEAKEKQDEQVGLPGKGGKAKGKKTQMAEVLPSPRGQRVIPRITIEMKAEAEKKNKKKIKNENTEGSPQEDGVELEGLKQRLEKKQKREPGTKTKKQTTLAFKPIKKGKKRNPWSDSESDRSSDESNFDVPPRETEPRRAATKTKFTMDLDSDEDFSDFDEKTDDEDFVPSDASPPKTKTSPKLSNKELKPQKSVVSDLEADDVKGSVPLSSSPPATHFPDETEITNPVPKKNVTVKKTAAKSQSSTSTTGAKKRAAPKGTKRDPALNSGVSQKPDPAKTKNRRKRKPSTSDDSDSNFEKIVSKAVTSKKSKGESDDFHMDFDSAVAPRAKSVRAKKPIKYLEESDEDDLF

[5] = tested on: Mtb; experiment: Mtb whole cell assay (% inhibition, MIC); format: cell-based, Mycobacterium tuberculosis; conditions: for inhibition at 20 µM: Mycobacterium tuberculosis, Table 5 (same values in Table 6 at 20 µM)
[6] = tested on: J774; conditions: 200 µM
[7] = in vitro; conditions: mouse
[8] = in vitro; conditions: human
[9] = tested on: S. aureus (ATCC 14775); experiment: Minimum inhibitory concentration, broth microdilution; conditions: for MIC: Staphylococcus aureus
Experimental: (§2) Antibacterial minimum inhibitory concentrations (MICs) were obtained from three independent experiments using broth microdilution methods in 96-well plates according to Clinical and Laboratory Standards Institute guidelines. Cells were culture from singles colonies in MHIIB medium for 24 h at 37° C. in agitation (200 RPM). The cultures were then diluted using the same media to reach an OD600 of 0.1. Then, 50 µL of the diluted cultures were added to the plates holding 50 µL of serially diluted compounds in MHIIB. The plates were incubated at 37° C. for 20 h. The starting inoculum was fixated to 10^5 colony-forming units per ml.

[10] = tested on: MRSA; experiment: as above; conditions: for MIC: Staphylococcus aureus
Experimental: as §2

[11] = molecular target: T1, E. coli DNA gyrase; experiment: SDFQ-based DNA gyrase inhibition assay; format: biochemical
Experimental: 100 ng of DNA gyrase was used to supercoil the rx pAB1_FL905 in the presence of different concentrations of a gyrase inhibitor. […] The IC50 values were estimated by nonlinear fitting of the following equation: […]
where F is the fluorescence intensity at the x concentration of an min inhibitor. Fmax and Fmin are the maximum and minimum fluorescence of the DNA sample, respectively. P is a slope parameter.

[12] = molecular target: T1, E. coli DNA gyrase; experiment: E. coli DNA gyrase ATPase assay; format: biochemical
Experimental: E. coli DNA gyrase ATPase assays were performed in 60 µL of 1 ×gyrase ATPase buffer (10 mM Tris.HCl (pH 7.5), 0.2 mM EDTA, 1 mM magnesium chloride, 1 mM DTT, and 2% (w/v) glycerol) containing 50 nM E. coli DNA gyrase, 200 ng rx pAB1, 0.8 mM Phosphoenol pyruvate, 1.2 units of Pyruvate kinase, 1.7 units of lactate dehydrogenase, and 0.4 mM of NADH at 37° C. After the reaction mixtures are incubated on ice for 5 minutes, 2 mM of ATP is added to initiate the reaction. Absorbance at OD340nm is monitored for up to 30 minutes at 37° C. in a spectrophotometer.

[13] = molecular target: E. coli DNA topoisomerase I (Escherichia coli (strain K12), UniProt P06612); experiment: E. coli DNA topoisomerase I inhibition; format: biochemical; conditions: gallates at 100 µM
E. coli DNA topoisomerase I, sequence (P06612 whole entry, looked up): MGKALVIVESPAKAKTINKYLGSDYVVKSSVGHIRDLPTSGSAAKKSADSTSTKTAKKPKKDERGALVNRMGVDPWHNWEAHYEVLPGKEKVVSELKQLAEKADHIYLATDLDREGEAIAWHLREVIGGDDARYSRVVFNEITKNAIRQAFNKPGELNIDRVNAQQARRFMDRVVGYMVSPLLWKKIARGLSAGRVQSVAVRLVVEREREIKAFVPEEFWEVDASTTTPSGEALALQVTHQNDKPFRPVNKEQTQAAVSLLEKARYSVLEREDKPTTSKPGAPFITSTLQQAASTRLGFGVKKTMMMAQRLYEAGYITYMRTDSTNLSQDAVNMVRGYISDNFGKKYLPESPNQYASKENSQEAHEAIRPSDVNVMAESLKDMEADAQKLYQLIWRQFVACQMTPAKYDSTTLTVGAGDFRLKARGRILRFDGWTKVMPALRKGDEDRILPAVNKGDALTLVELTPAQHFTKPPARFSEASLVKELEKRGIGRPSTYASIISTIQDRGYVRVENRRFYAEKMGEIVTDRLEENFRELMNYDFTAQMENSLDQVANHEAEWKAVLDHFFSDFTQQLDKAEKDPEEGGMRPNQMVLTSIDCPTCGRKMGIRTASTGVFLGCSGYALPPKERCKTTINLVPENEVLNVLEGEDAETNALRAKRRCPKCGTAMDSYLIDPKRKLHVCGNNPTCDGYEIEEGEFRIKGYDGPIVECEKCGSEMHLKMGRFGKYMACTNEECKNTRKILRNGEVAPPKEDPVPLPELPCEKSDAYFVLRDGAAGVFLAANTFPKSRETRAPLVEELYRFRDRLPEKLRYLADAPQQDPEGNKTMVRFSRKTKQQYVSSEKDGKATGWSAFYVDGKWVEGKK

[14] = molecular target: T2, E. coli DNA topoisomerase IV (Escherichia coli (strain K12), UniProt P0AFI2+P20083); experiment: E. coli DNA topoisomerase IV relaxation assay (gel-based); format: biochemical
T2 sequence (P0AFI2 whole entry, looked up): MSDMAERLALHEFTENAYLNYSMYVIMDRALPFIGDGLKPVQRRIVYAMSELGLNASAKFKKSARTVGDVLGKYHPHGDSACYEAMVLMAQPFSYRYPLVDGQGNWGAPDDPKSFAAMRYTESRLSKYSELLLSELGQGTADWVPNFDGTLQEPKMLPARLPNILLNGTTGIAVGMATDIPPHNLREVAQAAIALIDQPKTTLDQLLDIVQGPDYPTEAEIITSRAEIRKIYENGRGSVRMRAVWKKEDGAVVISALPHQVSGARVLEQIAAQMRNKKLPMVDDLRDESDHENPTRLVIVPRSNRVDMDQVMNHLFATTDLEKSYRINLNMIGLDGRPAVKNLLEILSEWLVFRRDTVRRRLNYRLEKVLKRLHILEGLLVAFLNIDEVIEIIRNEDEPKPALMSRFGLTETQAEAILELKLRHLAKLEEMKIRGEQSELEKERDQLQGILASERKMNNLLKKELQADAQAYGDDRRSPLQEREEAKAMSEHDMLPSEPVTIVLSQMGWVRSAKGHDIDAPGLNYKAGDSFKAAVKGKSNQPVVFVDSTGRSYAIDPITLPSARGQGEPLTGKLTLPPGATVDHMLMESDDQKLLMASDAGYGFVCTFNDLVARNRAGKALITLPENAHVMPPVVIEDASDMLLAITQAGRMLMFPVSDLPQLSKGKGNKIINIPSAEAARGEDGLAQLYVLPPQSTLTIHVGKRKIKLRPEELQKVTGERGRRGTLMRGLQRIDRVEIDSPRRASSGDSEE
T2 sequence (P20083 whole entry, looked up): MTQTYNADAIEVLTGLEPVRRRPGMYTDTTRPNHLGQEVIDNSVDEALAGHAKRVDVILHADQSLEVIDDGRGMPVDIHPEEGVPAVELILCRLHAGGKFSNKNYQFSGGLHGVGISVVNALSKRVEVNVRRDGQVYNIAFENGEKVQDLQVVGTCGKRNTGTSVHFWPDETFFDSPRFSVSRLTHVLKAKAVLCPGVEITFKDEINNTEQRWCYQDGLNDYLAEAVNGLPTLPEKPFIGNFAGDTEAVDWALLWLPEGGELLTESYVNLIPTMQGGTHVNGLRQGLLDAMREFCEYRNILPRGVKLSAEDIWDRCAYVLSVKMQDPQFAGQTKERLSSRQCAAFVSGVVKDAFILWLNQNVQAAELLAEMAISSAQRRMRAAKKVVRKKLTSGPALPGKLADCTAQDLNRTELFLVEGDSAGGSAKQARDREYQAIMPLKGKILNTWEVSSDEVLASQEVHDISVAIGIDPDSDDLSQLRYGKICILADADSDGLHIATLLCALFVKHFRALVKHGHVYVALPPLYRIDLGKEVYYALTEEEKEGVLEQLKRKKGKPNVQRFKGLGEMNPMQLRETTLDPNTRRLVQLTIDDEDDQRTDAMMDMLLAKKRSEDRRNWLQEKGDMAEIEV
Experimental: (§1) Relaxation assays by E. coli DNA topoisomerase IV and the ATPase assays were performed. […] Lane 1 is supercoiled plasmid pAB1. […] The supercoiled, fluorescently-labeled plasmid pAB1_FL905 was used.

[15] = molecular target: T2, E. coli DNA topoisomerase IV; experiment: SDFQ-based DNA relaxation assay with E. coli DNA topoisomerase IV; format: biochemical
Experimental: as §1

[16] = molecular target: human DNA topoisomerase I (Homo sapiens (Human), UniProt P11387); experiment: Human DNA topoisomerase I inhibition; format: biochemical; conditions: gallates at 100 µM
human DNA topoisomerase I, sequence (P11387 whole entry): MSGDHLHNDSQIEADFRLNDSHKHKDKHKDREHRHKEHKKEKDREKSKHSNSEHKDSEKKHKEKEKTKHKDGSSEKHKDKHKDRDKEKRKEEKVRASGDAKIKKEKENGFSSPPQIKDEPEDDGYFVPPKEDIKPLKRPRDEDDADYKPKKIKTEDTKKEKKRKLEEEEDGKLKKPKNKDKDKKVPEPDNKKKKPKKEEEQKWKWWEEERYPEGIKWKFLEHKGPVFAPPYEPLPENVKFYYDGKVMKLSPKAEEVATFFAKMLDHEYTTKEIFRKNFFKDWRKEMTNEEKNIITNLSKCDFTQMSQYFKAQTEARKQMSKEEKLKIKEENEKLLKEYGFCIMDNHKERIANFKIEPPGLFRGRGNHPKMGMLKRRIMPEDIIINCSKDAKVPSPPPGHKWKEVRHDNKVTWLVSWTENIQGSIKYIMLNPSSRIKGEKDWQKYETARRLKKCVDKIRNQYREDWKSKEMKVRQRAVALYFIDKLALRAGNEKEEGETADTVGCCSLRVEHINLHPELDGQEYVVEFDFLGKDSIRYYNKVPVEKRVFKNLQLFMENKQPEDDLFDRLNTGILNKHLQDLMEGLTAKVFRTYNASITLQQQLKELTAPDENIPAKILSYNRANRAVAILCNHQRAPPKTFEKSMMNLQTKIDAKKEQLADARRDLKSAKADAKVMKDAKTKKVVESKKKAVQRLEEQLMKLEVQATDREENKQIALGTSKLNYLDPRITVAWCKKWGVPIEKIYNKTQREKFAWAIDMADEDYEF

[17] = molecular target: T1, E. coli DNA gyrase; experiment: DNA gyrase mediated DNA cleavage assay; format: biochemical; conditions: pBR322
Experimental: 250 ng of supercoiled pBR322 plasmid were incubated with 50 nM of E. coli DNA gyrase in reactions containing 35 mM Tris-HCl, 24 mM KCl, 4 mM MgCl2, 2 mM DTT, 0.1 mg/mL BSA, 6.5% glycerol, and 1.75 mM ATP, in presence of 200 µM of compounds, at 37° C. for 15 min. Then, 0.2% (w/v) of SDS and 0.1 mg/mL proteinase K were added, and samples were incubated at 37° C. for 1 h. […] Samples were examined by electrophoresis in 1% w/v agarose gel containing 0.5 µg/mL ethidium bromide and photographed under UV light.

[18] = molecular target: T2, E. coli DNA topoisomerase IV; experiment: ATP hydrolysis activity of E. coli DNA topoisomerase IV; format: biochemical; conditions: 100 µM
Experimental: as §1

[19] = molecular target: E. coli topoisomerase IV (Escherichia coli (strain K12), UniProt P0AFI2+P20083); experiment: E. coli topoisomerase IV decatenation; format: biochemical; conditions: read-out: IC50 against E. coli topoisomerase IV
E. coli topoisomerase IV, sequence (P0AFI2 whole entry, looked up): as the sequence (P0AFI2 whole entry, looked up) above
E. coli topoisomerase IV, sequence (P20083 whole entry, looked up): as the sequence (P20083 whole entry, looked up) above

[20] = tested on: E. coli imp; experiment: microbe, parasite or virus in culture; conditions: Escherichia coli, read-out: MIC E. coli imp BAS3023
Experimental: as §2

[21] = tested on: E. coli (ATCC 25922); experiment: Minimum inhibitory concentration, broth microdilution; conditions: for MIC: Escherichia coli
[22] = tested on: B. subtilis (ATCC 6633); experiment: as above; conditions: for MIC: Bacillus subtilis
Experimental: as §2

[23] = molecular target: human DNA topoisomerase 2α (Homo sapiens (Human), UniProt P11388); experiment: Human DNA topoisomerase 2α-mediated DNA cleavage assay; format: biochemical; conditions: pBR322
human DNA topoisomerase 2α, sequence (P11388 whole entry): as the sequence (P11388 whole entry) above

[24] = tested on: E. coli imp
Experimental: as §2

[25] = IC50 (µM) EC, Table 5, E. coli gyrase
[26] = ATCC14775, read-out: MIC (µM) SA
[27] = ATCC14775, read-out: Minimum Inhibitory Concentration S.aureus
[28] = MRSA, read-out: Minimum Inhibitory Concentration S.aureus MRSA
[29] = SDFQ-based, three independent experiments, read-out: IC50 against E. coli DNA gyrase
[30] = IC50 against E. coli DNA gyrase
[31] = ATCC6633, read-out: Minimum Inhibitory Concentration B.subtilis

| Compound | inhibition of E. coli DNA gyrase activities ([1]; 50 µM of compounds) | IC50 [2, 25] [µM] | inhibition of Mtb DNA gyrase activities [3] | IC50 [3] [µM] | IC50 [4] [µM] | activity against Mtb [5] | inhibition at 20 µM [5] [%] | cytotoxicity J774 [6] | IC50 [7] [µM] | IC50 [8] [µM] | MIC [9, 26] [µM] | MIC [9, 27] [µM] | MIC ([10]; MRSA, read-out: MIC (µM) MRSA) [µM] | MIC [10, 28] [µM] | inhibition of human DNA topoisomerase IIα [4] | E. coli DNA gyrase-mediated DNA breaks and nicking [17] | IC50 [11, 29] [µM] | IC50 [2, 30] [µM] | human topoisomerase 2α-mediated DNA nicks and double-stranded breaks [23] | MIC [22, 31] [µM] | other results |
| --- | --- | --- | --- | --- | --- | --- | --- | --- | --- | --- | --- | --- | --- | --- | --- | --- | --- | --- | --- | --- | --- |
| Cc1c(CCC(=O)O)c(=O)oc2c(C)c3occ(-c4ccc(-c5ccccc5)cc4)c3cc12 [Compound 119] | completely inhibited | 7.7 | potent Mtb gyrase inhibitors | 16 | 133 | most active | 70.4 | no cytotoxicity | > 200 | > 200 | 0.8 (≈ 0.351 µg/mL) | 0.78 (≈ 0.342 µg/mL) | 0.8 | 0.78 |  |  |  |  |  |  |  |
| O=C(O)c1cc(O)c(O)c(OC(=O)c2cc(O)c(O)c(O)c2)c1 [Digallic acid, digallic acid] |  |  |  |  |  |  |  |  |  |  |  |  |  |  | do not inhibit; also recorded: did not strongly inhibit | not bacterial DNA gyrase poisons |  |  |  |  | IC50 ([1]; gel-based, read-out: IC50 against E. coli DNA gyrase): 2 µM; IC50 ([11]; Table 8, read-out: IC50 Gyrase SDFQ): 1.9 µM; inhibition of the ATPase activities of E. coli DNA gyrase ([12]; AB-MECA and gallates at 100 µM): competitive inhibitor; Ki ([12]; ATPase, ATP competitive, read-out: Ki): 0.347 µM; inhibition of E. coli DNA topoisomerase I [13]: do not inhibit; also recorded: did not strongly inhibit; IC50 ([14]; IC50 Topoisomerase IV Gel-based, Table 8): 8 µM; IC50 ([14]; IC50 against E. coli DNA topoisomerase IV, relaxation): ~8 µM; IC50 [15]: 7.3 µM; inhibition of human DNA topoisomerase I [16]: do not inhibit; also recorded: did not strongly inhibit; inhibition of the ATPase activities of bacterial DNA topoisomerase IV [18]: inhibit the ATPase activities; IC50 [19]: ~4 µM; MIC [20]: > 200 µM; MIC ([21]; ATCC25922, read-out: MIC E coli ATCC 25922, Table 9): > 200 µM; MIC ([9]; ATCC14775, read-out: MIC S. aureus ATCC 14775): 64 µg/mL and 200 µM; MIC ([10]; ATCC33591 / MRSA, read-out: MIC MRSA ATCC 33591): 200 µM; MIC ([10]; ATCCBAA44 / MRSA, read-out: MIC S. aureus (MRSA) ATCC BAA44): 64 µg/mL; MIC ([22]; ATCC6633, read-out: MIC B. subtilis ATCC 6633): > 64 µg/mL and > 200 µM |
| CC(OC(=O)c1cc(O)c2ccccc2c1O)C(=O)Nc1ccc(C(N)=O)cc1 (stereo not drawn) [Compound 40, 1-[(4-carbamoylphenyl)carbamoyl]ethyl 1,4-dihydroxynaphthalene-2-carboxylate] |  |  |  |  |  |  |  |  |  |  |  |  |  |  | does not inhibit | causes DNA gyrase-mediated double stranded DNA breaks and DNA nicking; also recorded: causes gyrase-mediated DNA double-stranded breaks and single-stranded nicks | 47.6 ± 3.7 | 50 | does not cause | 100 (≈ 39.4 µg/mL) | inhibition of E. coli DNA gyrase activities ([1]; 200 µM of compounds): completely inhibited; IC50 ([2]; IC50 (50-200 µM), bin of Table 2): 50 to 200 µM; anti Bacillu subtilis activities [22]: 39 µg/mL |
| N=C(N)Nc1nc(-c2ccccc2)c2cc(Cl)ccc2n1 [Compound 154, N-(6-chloro-4-phenylquinazolin-2-yl)guanidine] | completely inhibited |  |  |  | ~50 |  |  |  |  |  |  | 25 (≈ 7.44 µg/mL) |  | 25 |  | causes the gyrase-mediated DNA double-stranded breaks and single-stranded nicks | 3.1 ± 0.7 | 7 | causes the human topoisomerase 2a-mediated DNA nicks and double-stranded breaks | 25 (≈ 7.44 µg/mL) | inhibition of E. coli DNA topoisomerase IV [14]: inhibits; MIC ([21]; ATCC25922, read-out: Minimum Inhibitory Concentration E. coli, Tables 3a-3c): 50 µM (≈ 14.9 µg/mL) |
| Cc1c(CCC(=O)O)c(=O)oc2c(C)c3occ(-c4ccc5ccccc5c4)c3cc12 [Compound 124] | completely inhibited | 5.5 | potent Mtb gyrase inhibitors | 3 | 117 | most active | 80.4 | no cytotoxicity | > 200 | > 200 | 1.6 (≈ 0.66 µg/mL) | 1.56 (≈ 0.643 µg/mL) | 1.6 | 1.56 |  |  |  |  |  |  |  |
| biphenyl gallate |  |  |  |  |  |  |  |  |  |  |  |  |  |  |  |  |  |  |  |  | MIC E. coli imp ([24]; Table 7): 36.43 µg/mL; MIC E. coli imp BAS3023 ([24]; Table 9): 200 µM; MIC E coli ATCC 25922 [21]: >200 µM; MIC E. coli ATCC 25922 [21]: 517.29 µg/mL; MIC S. aureus ATCC 14775 [9]: 16 µg/mL and 50 µM; MIC MRSA ATCC 33591 [10]: 50 µM; MIC S. aureus (MRSA) ATCC BAA44 [10]: 16 µg/mL; MIC B. subtilis ATCC 6633 [22]: 16 µg/mL and 50-100 µM |

Reference: US20230364057A1, “BACTERIAL DNA GYRASE INHIBITORS AND METHODS OF USE THEREOF” (THE FLORIDA INTERNATIONAL UNIVERSITY BOARD OF TRUSTEES, priority 2022, published 2023)
